Experimental data taken from patent EP2060252A1, “New formulation of galactosylceramide derivatives” (Wittycell, priority 2007, dated 2009).

What was measured:
[1] = Micelle to vesicle phase transition upon dilution: aspect; format: physicochemical; settings: mixed micellar solution from sodium taurocholate and PBS57 (50 µg/mL)
Method: It is well established that phospholipids/bile salt mixed aggregates are going through a phase transition to form vesicles (liposomes) once diluted.
The same experiment was carried out on a mixed micellar solution obtained from sodium taurocholate and PBS57 (50 µg/mL).

[2] = Mixed micelles with bile salts: macroscopic aspect after reconstitution; format: physicochemical; settings: for Aspect of the solution after reconstitution: PBS57 200 µg/mL; for Macroscopic observation right after reconstitution with 5% glucose: PBS57 50 µg/mL, ratio bile salt / PBS57 1/1
Method: The mixed-micelle solution manufacturing process requires co-solubilization of the lipid and the bile salt into a solvent (ethanol) that is then evaporated before the final aqueous medium is added to obtain the mixed-micellar solution. A 5% glucose solution was used as the aqueous reconstitution medium here.
Both sodium taurocholate and deoxycholate were tested. A first indication that the mixed aggregates are truly formed is the clear aspect of the solution.
PBS57 concentration in the above 2 experiments was 50 µg/mL. The ratio bile salt / PBS57 was here 1/1.
Solutions of PBS57 at 200 µg/mL associated (equimolar ratio) to sodium taurocholate or sodium deoxycholate were manufactured by the same protocol.

[3] = water

Aspect upon dilution [1]	Aspect of the solution after reconstitution ([2]; equimolar ratio to sodium deoxycholate)	Aspect of the solution after reconstitution ([2]; equimolar ratio to sodium taurocholate)	Macroscopic observation right after reconstitution with 5% glucose ([2]; excipient Taurocholate)	Thermodynamic aqueous solubility [3]	Compound	Macroscopic observation right after reconstitution with 5% glucose ([2]; excipient Deoxycholate)
slightly turbid suspension	perfectly clear	perfectly clear	Slightly turbid		CCCCCCCC/C=C\CCCCCCCCCCCCCC(=O)N[C@@H](CO[C@H]1O[C@H](CNC(C)=O)[C@H](O)[C@H](O)[C@H]1O)[C@H](O)[C@H](O)CCCCCCCCCCCCCC [PBS57]	Turbid with large aggregates, flocculation slowly turning to sedimentation
				below 5 µg/mL	α-galactosylceramide [α-GC]	
